Experimental data taken from ChEMBL document CHEMBL4261613, “Discovery of a potent orally bioavailable retinoic acid receptor-related orphan receptor-gamma-t (RORγt) inhibitor, S18-000003” (Bioorg Med Chem Lett, 2018).

Columns and labels:
Mus musculus [1] = assay: In-vivo transrepression of RORgammat in mouse assessed as inhibition of IL23-stimulated IL17 production at 30 mg/kg, po administered 30 mins before and 6 hrs after IL-23 injection in skin intradermally measured after 24 hrs by ELISA relative to control; type: functional
[2] = Cmax in mouse at 100 mg/kg, po; type: ADME, organism-based; design: dose 100 mg/kg, route oral; conditions: in vivo
[3] = biological target: T1, Nuclear receptor ROR-alpha (Homo sapiens, UniProt P35398); assay: Displacement of [3H]T0901317 from recombinant human GST-fused RORalpha LBD after 1 to 4 hrs by microbeta scintillation counting method
T1 sequence (P35398 whole entry): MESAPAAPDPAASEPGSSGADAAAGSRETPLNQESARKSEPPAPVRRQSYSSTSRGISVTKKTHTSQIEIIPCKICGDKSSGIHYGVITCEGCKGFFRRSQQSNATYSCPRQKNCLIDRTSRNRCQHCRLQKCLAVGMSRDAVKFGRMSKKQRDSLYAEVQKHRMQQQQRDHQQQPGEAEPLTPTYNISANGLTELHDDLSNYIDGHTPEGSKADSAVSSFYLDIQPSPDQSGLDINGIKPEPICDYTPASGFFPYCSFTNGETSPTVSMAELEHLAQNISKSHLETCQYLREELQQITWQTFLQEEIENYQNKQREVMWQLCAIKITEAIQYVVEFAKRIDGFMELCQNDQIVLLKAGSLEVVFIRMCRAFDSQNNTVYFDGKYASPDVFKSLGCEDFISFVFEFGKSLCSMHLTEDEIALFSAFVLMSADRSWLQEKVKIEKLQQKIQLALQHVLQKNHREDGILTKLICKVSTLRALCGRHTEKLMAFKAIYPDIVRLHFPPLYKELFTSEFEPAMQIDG

[4] = biological target: T2, Oxysterols receptor LXR-alpha (Homo sapiens, UniProt Q13133); assay: Transrepression of recombinant human GAL4-DBD fused LXRalpha LBD expressed in HEK293 cells after 20 hrs by luciferase reporter gene assay; type: cell-based
T2 sequence (Q13133 whole entry): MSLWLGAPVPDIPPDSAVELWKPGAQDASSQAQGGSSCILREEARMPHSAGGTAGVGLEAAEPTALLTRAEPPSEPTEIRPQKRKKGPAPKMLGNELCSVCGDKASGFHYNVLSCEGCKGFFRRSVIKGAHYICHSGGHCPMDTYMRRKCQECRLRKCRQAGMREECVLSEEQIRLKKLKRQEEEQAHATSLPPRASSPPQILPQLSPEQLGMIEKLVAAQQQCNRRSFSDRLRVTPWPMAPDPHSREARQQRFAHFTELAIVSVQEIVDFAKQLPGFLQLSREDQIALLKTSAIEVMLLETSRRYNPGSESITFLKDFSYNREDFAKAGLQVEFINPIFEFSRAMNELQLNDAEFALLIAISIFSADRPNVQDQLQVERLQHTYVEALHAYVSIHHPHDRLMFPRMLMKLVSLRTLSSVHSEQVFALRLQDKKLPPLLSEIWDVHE

[5] = Tmax in mouse at 30 mg/kg, po; type: ADME, organism-based; conditions: in vivo
[6] = Tmax in mouse at 100 mg/kg, po; type: ADME, organism-based; conditions: in vivo
[7] = AUC in mouse at 30 mg/kg, po; type: ADME, organism-based; conditions: in vivo
[8] = Cmax in mouse at 30 mg/kg, po; type: ADME, organism-based; design: dose 30 mg/kg, route oral; conditions: in vivo
Mus musculus [9] = assay: In-vivo transrepression of RORgammat in mouse assessed as inhibition of IL23-stimulated IL17 production at 100 mg/kg, po administered 30 mins before and 6 hrs after IL-23 injection in skin intradermally measured after 24 hrs by ELISA relative to control; type: functional
[10] = Fraction unbound in rat plasma at 1 mg/kg, po; type: ADME, organism-based
[11] = AUC in mouse at 100 mg/kg, po; type: ADME, organism-based; conditions: in vivo
Mus musculus [12] = assay: In-vivo transrepression of RORgammat in po dosed mouse assessed as inhibition of IL23-stimulated IL17 production administered 30 mins before and 6 hrs after IL-23 injection in skin intradermally measured after 24 hrs by ELISA; type: functional, organism-based

| SMILES | inhibition in vivo at 30 mg/kg (Mus musculus [1]) | Cmax [2] | IC50 [3] | EC50 [4] | Tmax [5] | Tmax [6] | AUC [7] | Cmax [8] | inhibition in vivo at 100 mg/kg (Mus musculus [9]) | fraction unbound [10] | AUC [11] | inhibition (Mus musculus [12]) |
| --- | --- | --- | --- | --- | --- | --- | --- | --- | --- | --- | --- | --- |
| CCS(=O)(=O)c1ccc(CC(=O)Nc2ccc(C(C)(C)C(=O)Nc3ccc(F)cc3F)c(F)c2)cc1 | 41% | 17800 ng/mL | > 10 µM | > 30 µM | 90 min | 48 min | 43500 ng·h/mL | 8350 ng/mL | 63% | 0.034 | 96300 ng·h/mL | Dose-dependent effect |
| CCS(=O)(=O)c1ccc(CC(=O)Nc2ccc(C(C)(C)C(=O)Nc3ccc(F)cc3)c(F)c2)cc1 | – | – | > 10 µM | > 30 µM | – | – | – | – | – | 0.036 | – | – |
| CCS(=O)(=O)c1ccc(CC(=O)Nc2ccc(C(C)(C)C(=O)Nc3cc(C#N)ccn3)c(F)c2)cc1 | 22% | 8450 ng/mL | > 10 µM | > 30 µM | 30 min | 30 min | 4740 ng·h/mL | 2700 ng/mL | 38% | 0.051 | 23000 ng·h/mL | Dose-dependent effect |
